Measurements from US11046699B2, “Pyrazolo-pyrimidin-amino-cycloalkyl compounds and their therapeutic uses” (RAPT THERAPEUTICS, INC., priority 2018, dated 2021).
Like-named read-outs stand apart in the source and are kept apart here.

Molecular target: GCN2 (Homo sapiens, UniProt Q9P2K8)
Assay: GCN2 enzymatic endpoint assay: phosphorylation of GFP-eIF2α measured by TR-FRET (Lanthascreen)
Assay type: biochemical
Method in brief: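 Reaction started with 2 μM ATP and 80 nM GFP-labelled eIF2α substrate at room temperature, stopped with EDTA after 90 minutes. Phospho-eIF2α detected by terbium-labelled antibody TR-FRET; activity taken as 520 nm (fluorescein) to 495 nm (terbium) emission ratio.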

[1] = tested as described in Example 77, compound and/or hydrochloride, dihydrochloride or trifluoroacetic acid salt, read-out: IC 50 Activity

Chain of GCN2 (Q9P2K8 whole entry): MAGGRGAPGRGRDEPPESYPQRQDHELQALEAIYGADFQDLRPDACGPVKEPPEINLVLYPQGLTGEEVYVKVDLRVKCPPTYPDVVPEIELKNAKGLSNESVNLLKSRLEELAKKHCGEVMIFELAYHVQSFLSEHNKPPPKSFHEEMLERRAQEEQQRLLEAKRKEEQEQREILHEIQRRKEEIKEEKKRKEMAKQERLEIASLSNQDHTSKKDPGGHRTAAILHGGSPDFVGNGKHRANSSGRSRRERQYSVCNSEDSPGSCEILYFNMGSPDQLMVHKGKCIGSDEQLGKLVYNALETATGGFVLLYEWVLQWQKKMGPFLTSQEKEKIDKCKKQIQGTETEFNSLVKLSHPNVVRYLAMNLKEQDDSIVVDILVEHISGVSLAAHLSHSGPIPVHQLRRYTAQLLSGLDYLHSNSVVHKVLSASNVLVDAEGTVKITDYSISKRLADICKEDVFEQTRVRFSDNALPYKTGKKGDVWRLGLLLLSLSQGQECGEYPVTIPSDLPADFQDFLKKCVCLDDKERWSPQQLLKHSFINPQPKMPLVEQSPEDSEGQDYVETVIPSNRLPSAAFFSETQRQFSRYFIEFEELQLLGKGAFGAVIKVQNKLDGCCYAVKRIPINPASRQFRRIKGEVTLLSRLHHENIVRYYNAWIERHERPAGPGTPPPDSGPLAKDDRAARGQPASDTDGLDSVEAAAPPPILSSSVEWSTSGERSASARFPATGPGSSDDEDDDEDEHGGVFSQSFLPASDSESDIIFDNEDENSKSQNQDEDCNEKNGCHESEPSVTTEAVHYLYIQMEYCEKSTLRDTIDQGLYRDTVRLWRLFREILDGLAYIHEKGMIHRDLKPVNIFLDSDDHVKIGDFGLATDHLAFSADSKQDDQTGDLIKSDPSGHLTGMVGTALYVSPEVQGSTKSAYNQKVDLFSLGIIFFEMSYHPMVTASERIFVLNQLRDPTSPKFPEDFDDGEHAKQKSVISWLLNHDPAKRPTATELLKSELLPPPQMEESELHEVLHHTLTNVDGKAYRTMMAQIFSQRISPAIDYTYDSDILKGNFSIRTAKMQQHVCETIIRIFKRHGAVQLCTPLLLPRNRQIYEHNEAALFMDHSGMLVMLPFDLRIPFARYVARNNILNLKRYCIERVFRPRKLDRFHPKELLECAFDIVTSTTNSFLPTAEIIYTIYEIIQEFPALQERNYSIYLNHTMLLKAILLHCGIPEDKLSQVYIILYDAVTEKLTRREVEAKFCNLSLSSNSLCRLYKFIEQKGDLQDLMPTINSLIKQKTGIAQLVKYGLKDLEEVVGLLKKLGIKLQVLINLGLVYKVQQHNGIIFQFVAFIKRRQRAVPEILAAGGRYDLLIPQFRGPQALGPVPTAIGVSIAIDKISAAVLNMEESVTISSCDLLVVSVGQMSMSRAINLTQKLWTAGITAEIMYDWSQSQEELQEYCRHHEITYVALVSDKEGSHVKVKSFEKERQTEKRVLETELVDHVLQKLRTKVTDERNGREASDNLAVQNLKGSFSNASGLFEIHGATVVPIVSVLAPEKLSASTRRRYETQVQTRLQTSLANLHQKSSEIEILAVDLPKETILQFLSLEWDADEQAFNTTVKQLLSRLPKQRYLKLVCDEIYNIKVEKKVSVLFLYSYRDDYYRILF

Row | SMILES | IC50 [1] | IC50 (GCN2 biochemical IC50, 4 nM GCN2, 2 μM ATP, 80 nM GFP-eIF2α, 90 min RT, read-out: GCN2 activity)
1 | CNC(=O)[C@]1(C)CC[C@@H](Nc2ncc3c(Br)nn(-c4ccc(-c5nnc(C)s5)c(OCC#N)c4)c3n2)C1 [(1R,3R)-3-[[3-bromo-1-[3-(cyanomethoxy)-4-(5-methyl-1,3,4-thiadiazol-2-yl)phenyl]pyrazolo[3,4-d]pyrimidin-6-yl]amino]-N,1-dimethyl-cyclopentanecarboxamide] | 25 to 200 nM | –
2 | Cc1nnc(-c2ccc(-n3nc(Br)c4cnc(N[C@@H]5CC[C@@](C)(C(=O)N6CCP(C)(=O)CC6)C5)nc43)cc2)s1 | 25 to 200 nM | –
3 | C[C@@H]1CN(C(=O)[C@@H]2CC[C@@H](Nc3ncc4c(Br)nn(-c5ccc6ncccc6c5)c4n3)C2)C[C@@H](C)O1 [((1R,3R)-3-((3-bromo-1-(quinolin-6-yl)-1H-pyrazolo[3,4-d]pyrimidin-6-yl)amino)cyclo-pentyl)((2R,6R)-2,6-dimethylmorpholino) methanone] | 25 to 200 nM | –
4 | CNC(=O)[C@]1(C)CC[C@@H](Nc2ncc3c(Br)nn(-c4cc(CCN)c5c(c4)CCO5)c3n2)C1 [(1R,3R)-3-[[1-[7-(2-aminoethyl)-2,3-dihydrobenzofuran-5-yl]-3-bromo-pyrazolo [3,4-d]pyrimidin-6-yl]amino]-N,1-dimethyl-cyclopentanecarboxamide] | 25 to 200 nM | –
5 | C[C@]1(C(=O)N2CNC(=O)C2)CC[C@@H](Nc2ncc3c(Br)nn(-c4cc(F)c5ncccc5c4)c3n2)C1 [1-[(1S,3R)-3-[[3-bromo-1-(8-fluoro-6-quinolyl)pyrazolo[3,4-d]pyrimidin-6-yl]amino]-1-methyl-cyclopentanecarbonyl] imidazolidin-4-one] | 25 to 200 nM | –
6 | CNC(=O)[C@]1(C)CC[C@@H](Nc2ncc3c(Br)nn(-c4cnc5c(CCCN)cccc5c4)c3n2)C1 [(1R,3R)-3-[[1-[8-(3-aminopropyl)-3-quinolyl]-3-bromo-pyrazolo[3,4-d]pyrimidin-6-yl]amino]-N,1-dimethyl-cyclopentanecarboxamide] | 25 to 200 nM | –
7 | CS(=O)(=O)C1CC[C@@H](Nc2ncc3c(Br)nn(-c4cc(CCN)c5nccnc5c4)c3n2)C1 (stereo partly drawn) [1-[8-(2-aminoethyl)quinoxalin-6-yl]-3-bromo-N-[(1R)-3-methylsulfonylcyclo-pentyl]pyrazolo[3,4-d]pyrimidin-6-amine] | < 25 nM | –
8 | O[C@H]1CCC[C@@H]1Nc1ncc2c(Br)nn(-c3cc(F)c4ncccc4c3)c2n1 [(1S,2S)-2-[[3-bromo-1-(8-fluoro-6-quinolyl)pyrazolo[3,4-d]pyrimidin-6-yl]amino] cyclopentanol] | 25 to 200 nM | –
9 | CNC(=O)[C@]1(C)CC[C@@H](Nc2ncc3c(Br)nn(-c4cc(C#N)cc(CCC5CNC5)c4)c3n2)C1 [(1R,3R)-3-[[1-[3-[2-(azetidin-3-yl)ethyl]-5-cyano-phenyl]-3-bromo-pyrazolo[3,4-d]pyrimidin-6-yl]amino]-N,1-dimethyl-cyclopentanecarboxamide] | 25 to 200 nM | –
10 | O=C(NCCN1CCOCC1)[C@@H]1CC[C@@H](Nc2ncc3c(Br)nn(-c4ccc5ncccc5c4)c3n2)C1 [(1R,3R)-3-((3-bromo-1-(quinolin-6-yl)-1H-pyrazolo[3,4-d]pyrimidin-6-yl)amino)-N-(2-morpholinoethyl)cyclopentane-1-carboxamide] | 25 to 200 nM | –
11 | CNC(=O)[C@]1(C)CCC(Nc2ncc3c(Br)nn(-c4ccc5c(c4)CCC(=O)N5)c3n2)C1 (stereo partly drawn) [(1R)-3-[[3-bromo-1-(2-oxo-3,4-dihydro-1H-quinolin-6-yl)pyrazolo[3,4-d]pyrimidin-6-yl]amino]-N,1-dimethyl-cyclopentane-carboxamide] | 25 to 200 nM | –
12 | CNC(=O)[C@]1(C)CC[C@@H](Nc2ncc3c(Br)nn(-c4ccc(C#N)c(OCCOC)c4)c3n2)C1 [(1R,3R)-3-[[3-bromo-1-[4-cyano-3-(2-methoxyethoxy)phenyl]pyrazolo[3,4-d]pyrimidin-6-yl]amino]-N,1-dimethyl-cyclopentanecarboxamide] | 25 to 200 nM | –
13 | CS(=O)(=O)CCNC(=O)[C@@H]1CC[C@@H](Nc2ncc3c(Br)nn(-c4cc(C(F)F)c5ncccc5c4)c3n2)C1 [(1R,3R)-3-((3-bromo-1-(8-(difluoromethyl)quinolin-6-yl)-1H-pyrazolo[3,4-d]pyrimidin-6-yl)amino)-N-(2-(methylsulfonyl)ethyl)cyclo-pentane-1-carboxamide] | 200 to 500 nM | –
14 | CNC(=O)[C@]1(CC(F)(F)F)CC[C@@H](Nc2ncc3c(Br)nn(-c4ccc(-c5nnc(C)s5)cc4)c3n2)C1 | 25 to 200 nM | –
15 | CNC(=O)C1(C)CC[C@@H](Nc2ncc3c(Br)nn(-c4cc(CO)cc(OC)c4)c3n2)C1 (mixture of isomers) | 25 to 200 nM | –
16 | Cc1nnc(-c2ccc(-n3nc(Br)c4cnc(N[C@@H]5CC[C@@](C)(C(=O)N6CCNC(=O)C6)C5)nc43)cc2)o1 [4-[(1R,3R)-3-[[3-bromo-1-[4-(5-methyl-1,3,4-oxadiazol-2-yl)phenyl]pyrazolo [3,4-d]pyrimidin-6-yl]amino]-1-methyl-cyclopentanecarbonyl]piperazin-2-one] | 25 to 200 nM | –
17 | CNC(=O)[C@]1(C)CC[C@@H](Nc2ncc3c(Br)nn(-c4cc(OCCOC)c5ncccc5c4)c3n2)C1 [(1R,3R)-3-[[3-bromo-1-[8-(2-methoxy-ethoxy)-6-quinolyl]pyrazolo[3,4-d]pyrimidin-6-yl]amino]-N,1-dimethyl-cyclopentanecarboxamide] | < 25 nM | –

Row | SMILES | IC50 [1] | IC50 (GCN2 biochemical IC50, 4 nM GCN2, 2 μM ATP, 80 nM GFP-eIF2α, 90 min RT, read-out: GCN2 activity)
18 | CNC(=O)[C@]1(OC)CC[C@@H](Nc2ncc3c(Br)nn(-c4cc(F)c5ncccc5c4)c3n2)C1 [(1S,3R)-3-[[3-bromo-1-(8-fluoro-6-quinolyl)pyrazolo[3,4-d]pyrimidin-6-yl]amino]-1-methoxy-N-methyl-cyclopentanecarboxamide] | 25 to 200 nM | –
19 | O=C(N[C@H]1CC[C@@](O)(C(F)(F)F)CC1)[C@@H]1CC[C@@H](Nc2ncc3c(Br)nn(-c4ccc5ncccc5c4)c3n2)C1 | 25 to 200 nM | –
20 | COCCNC(=O)[C@H]1C[C@H](Nc2ncc3c(Br)nn(-c4ccc5ncccc5c4)c3n2)C1 [Example 2, (1r,3r)-3-((3-bromo-1-(quinolin-6-yl)-1H-pyrazolo[3,4-d]pyrimidin-6-yl)amino)-N-(2-methoxyethyl)cyclobutane-1-carboxamide] | – | 25 to 200 nM
21 | CNS(=O)(=O)[C@H]1CC[C@@H](Nc2ncc3c(Br)nn(-c4ccc5ncccc5c4)c3n2)C1 [(1S,3R)-3-((3-bromo-1-(quinolin-6-yl)-1H-pyrazolo[3,4-d]pyrimidin-6-yl)amino)-N-methylcyclopentane-1-sulfonamide] | 500 to 1000 nM | –
22 | CNC(=O)[C@]1(C)CC[C@@H](Nc2ncc3c(Br)nn(-c4ccc(-c5ncco5)c([C@H]5CCNC5)c4)c3n2)C1 [(1R,3R)-3-[[3-bromo-1-[4-oxazol-2-yl-3-[(3R)-pyrrolidin-3-yl]phenyl]pyrazolo[3,4-d]pyrimidin-6-yl]amino]-N,1-dimethyl-cyclopentane-carboxamide] | 25 to 200 nM | –
23 | CNC(=O)C1(C)CC[C@@H](Nc2ncc3c(Br)nn(-c4ccc(-c5noc(C)n5)cc4)c3n2)C1 (stereo partly drawn) [(3R)-3-[[3-bromo-1-[4-(5-methyl-1,2,4-oxadiazol-3-yl)phenyl]pyrazolo[3,4-d]pyrimidin-6-yl]amino]-N,1-dimethyl-cyclopentanecarboxamide] | 25 to 200 nM | –
24 | C[C@H]1COCCN1C(=O)[C@@H]1CC[C@@H](Nc2ncc3c(Br)nn(-c4ccc5ncccc5c4)c3n2)C1 [((1R,3R)-3-((3-bromo-1-(quinolin-6-yl)-1H-pyrazolo[3,4-d]pyrimidin-6-yl)amino)cyclopentyl)((S)-3-methylmorpholino) methanone] | 25 to 200 nM | –
25 | CNC(=O)[C@]1(C)CC[C@@H](Nc2ncc3c(I)nn(-c4ccc(-c5nnc(C)o5)cc4)c3n2)C1 [(1R,3R)-3-[[3-iodo-1-[4-(5-methyl-1,3,4-oxadiazol-2-yl)phenyl]pyrazolo[3,4-d]pyrimidin-6-yl]amino]-N,1-dimethyl-cyclopentanecarboxamide] | < 25 nM | –
26 | O[C@@H]1CC[C@@H](Nc2ncc3c(Br)nn(-c4cc(F)c5ncccc5c4)c3n2)C1 [(1R,3R)-3-[[3-bromo-1-(8-fluoro-6-quinolyl)pyrazolo[3,4-d]pyrimidin-6-yl]amino]cyclopentanol] | 25 to 200 nM | –
27 | Cc1nnc(-c2ccc(-n3nc(Br)c4cnc(N[C@@H]5CCC(C)(C(=O)N6C[C@@H](C)O[C@H](C)C6)C5)nc43)cc2)o1 (stereo partly drawn) [[(3R)-3-[[3-bromo-1-[4-(5-methyl-1,3,4-oxadiazol-2-yl)phenyl]pyrazolo[3,4-d]pyrimidin-6-yl]amino]-1-methyl-cyclopentyl]-[(2R,6R)-2,6-dimethylmorpholin-4-yl]methanone] | 25 to 200 nM | –
28 | CS(=O)(=O)CCNC(=O)[C@@H]1CC[C@@H](Nc2ncc3c(Br)nn(-c4cc(F)c5ncccc5c4)c3n2)C1 [(1R,3R)-3-((3-bromo-1-(8-fluoroquinolin-6-yl)-1H-pyrazolo[3,4-d]pyrimidin-6-yl)amino)-N-(2-(methylsulfonyl)ethyl)cyclo-pentane-1-carboxamide] | 200 to 500 nM | –
29 | C[C@H](N)c1cc(Cl)cc(-n2nc(Br)c3cnc(N[C@@H]4CC[C@@](C)(C(=O)N5CCP(C)(=O)CC5)C4)nc32)c1 | 25 to 200 nM | –
30 | COCCNC(=O)[C@@H]1CC[C@@H](Nc2ncc3c(Br)nn(-c4ccc5ccncc5c4)c3n2)C1 [(1R,3R)-3-((3-bromo-1-(isoquinolin-7-yl)-1H-pyrazolo[3,4-d]pyrimidin-6-yl)amino)-N-(2-methoxyethyl)cyclopentane-1-carboxamide] | 25 to 200 nM | –
31 | CC1(O)CC[C@@H](Nc2ncc3c(Br)nn(-c4cc(CCN)c5ncccc5c4)c3n2)C1 (stereo partly drawn) | 25 to 200 nM | –
32 | Cc1nnc(-c2ccc(-n3nc(Br)c4cnc(N[C@@H]5CC[C@@H](NC(=O)C(C)C)C5)nc43)cc2CCC#N)s1 [N-[(1R,3R)-3-[[3-bromo-1-[3-(2-cyanoethyl)-4-(5-methyl-1,3,4-thiadiazol-2-yl)phenyl]pyrazolo[3,4-d]pyrimidin-6-yl]amino]cyclopentyl]-2-methyl-propanamide] | 500 to 1000 nM | –
33 | CNC(=O)[C@]1([C@H](C)C#N)CC[C@@H](Nc2ncc3c(Br)nn(-c4ccc(-c5nnc(C)s5)cc4)c3n2)C1 [(1R,3R)-3-[[3-bromo-1-[4-(5-methyl-1,3,4-thiadiazol-2-yl)phenyl]pyrazolo [3,4-d]pyrimidin-6-yl]amino]-1-[(1S)-1-cyanoethyl]-N-methyl-cyclopentane-carboxamide] | 25 to 200 nM | –
